# Test results: patent US6521593B1, “Methods for inhibiting brain tumor growth” (Childrens Hospital Los Angeles, priority 1999, dated 2003)
# How the values were obtained:
# [1] = test system: DAOY human brain tumor cells; experiment: CAM assay: angiogenesis and growth of DAOY tumors on chick chorioallantoic membrane; assay type: in vivo; settings: 100 μg into a CAM vein, 6 days
# Procedure: (§1) CAM assay: Egg supplier and preparation have been described earlier (23). Tumor cells were plated in 50 μl PBS at 4×10^6 cells/egg for DAOY and 3.5×10^6 cells/egg for U87MG. Cells were grown to tumors for 7 days, then harvested under sterile conditions, trimmed to similar sizes and […] onto the CAM of 10-day-old embryos. […] Tumors were photographed in situ after 7 days of growth, then harvested, weighed and fixed in 4% buffered formalin and embedded in paraffin. After serial sectioning, slides were stained with hematoxilin and eosin.
# (§2) To assess the effect of αv antagonism on brain tumor associated angiogenesis, DAOY and U87MG human brain tumor cells were grown on chick chorioallantoic membranes (CAMs). The tumors were allowed to grow for 7 days before they were removed and reimplanted onto fresh CAMs. 24 hours after transfer, 100 μg of either the active cRGD peptide or control peptide (cRAD) was injected into a CAM vein. Tumors were grown for an additional 6 days and then weighed and analyzed for vascularization. […] In contrast to control tumors, which increased 80% in weight, αv-antagonist treated tumors decreased 30% in weight (FIG. 1b).
# (§3) FIGS. 1a and 1b show the inhibition of angiogenesis (a) and tumor growth on the CAM (b) by an αv-antagonist. Brain tumors grown on CAMs were harvested and cut to similar sizes and placed on fresh CAMs of 10-day-old chicken eggs. The following day, 100 μg of active αv-inhibitor or control peptide were injected into the chicken veins and grown for another 6 days. […] Tumors placed on the CAM were weighed at the beginning and end of the experiment (b). The weight of the tumors treated with the control peptide increased by 80% for both tumor types (left, n=8), whereas it decreased by about 30% when the active peptide was administered (right, n=8).
# [2] = test system: U87MG human brain tumor cells; experiment: CAM assay: angiogenesis and growth of U87MG tumors on chick chorioallantoic membrane; assay type: in vivo; settings: 100 μg into a CAM vein, 6 days
# Procedure: as §1, §2, §3
# DAOY cells [3] = experiment: Vitronectin adhesion, DAOY; assay type: cell-based, human; settings: test substance 20 μg/ml
# Procedure: (§4) Adhesion: Assay conditions were as previously described (15). Non-tissue culture treated wells incubated overnight at 4° C. with vitronectin (1-10 μg/ml PBS), washed and blocked for 30 min. with heat denatured 1% BSA in PBS, followed by washing with PBS. Control and test cells, pre-incubated at 37° C. with the test substance (20 μg/ml) in adhesion buffer for 30 min. were plated into wells (5×10^4 cells/well) and incubated for 1 hr at 37° C. After gentle washing of the wells with adhesion buffer, adhering cells were fixed and stained with crystal violet, the dye solubilized in methanol and the OD determined at […].
# (§5) To determine if αvβ3 and αvβ5 regulate DAOY, U87MG and HBEC adhesion to vitronecin, the cells were plated in vitronectin-coated wells and allowed to adhere in the presence or absence of either blocking antibodies to αvβ3 (LM-609) and αvβ5 (P1-F6) or the cRGD peptide.
# U87MG cells [4] = experiment: Vitronectin adhesion, U87MG; assay type: cell-based, human; settings: test substance 20 μg/ml
# Procedure: as §4, §5
# [5] = test system: human brain endothelial cells (HBEC); experiment: Vitronectin adhesion, HBEC; assay type: cell-based; settings: test substance 20 μg/ml
# Procedure: as §4, §5
# DAOY cells [6] = experiment: Vitronectin migration (Boyden chamber), DAOY; assay type: cell-based, human; settings: test substance 20 μg/ml, 4 hrs
# Procedure: (§6) Migration: Transwell polycarbonate filters (8 μm pore size) were incubated for 30 min. at 37° C. with vitronectin in PBS (1 μg/ml on the upper side and 10 μg on the bottom side), blocked for 30 min. with 1% heat denatured BSA and washed with PBS. Test cells (5×10^5/well) were added in adhesion buffer containing the test substances indicated (20 μg/ml) and incubated for 4 hrs at 37° C. with the lower chamber containing adhesion buffer. Cells in the upper chamber were removed with a cotton swab and cells on the bottom part of the filter were fixed and stained with crystal violet and the number of migrated cells determined by counting.
# (§7) To address whether αvβ3 and αvβ5 modulate migration on vitronectin, independent of adhestion, we tested the same cells on vitronectin-coated membranes in Boyden chambers while in the presence of blocking antibodies or cRGD. […] Since LM-609, in the absence of P1-F6, was incapable of blocking adhesion, this anti-migratory effect must be mediated through a distinct pathway which is independent of forces responsible for adhesion.
# U87MG cells [7] = experiment: Vitronectin migration (Boyden chamber), U87MG; assay type: cell-based, human; settings: test substance 20 μg/ml, 4 hrs
# Procedure: as §6, §7
# [8] = test system: human brain endothelial cells (HBEC); experiment: Vitronectin migration (Boyden chamber), HBEC; assay type: cell-based; settings: test substance 20 μg/ml, 4 hrs
# Procedure: as §6, §7
# DAOY cells [9] = experiment: Apoptosis on vitronectin (Annexin V-FITC FACS), DAOY; assay type: cell-based, human; settings: 20 μg/ml, 4 hrs
# Procedure: (§8) Apoptosis: Adhesion conditions were as above, except that 12 well plates covered with vitronectin and 5×10^5 cells/well were plated in adhesion buffer. […] Attached cells were trypsinized and combined with the detached cells in the supernatant and then examined for the presence of apoptotic cells using the Apo Alert Annexin V-FITC apoptosis kit (Clontech).
# (§9) FIGS. 6a-6d show the integrin profile (a), effect of αv-antagonist on adhesion to (b), migration on (c) and cell viability on vitronectin (d) for brain tumor and brain capillary endothelial cells. Both DAOY and U87MG tumor cells and brain capillary cells express the integrins αvβ3 and αvβ5 (a). […] Cell viability was tested by letting the cells attach to vitronectin for 1 hour, and then exposing them for 4 hours to the control peptide or αv-antagonist (20 μg/ml) (d). Adherent and floating cells were combined and examined by FACS for apoptosis, using FITC labeled anti-annexin V and propidium iodide.
# (§10) We have previously shown that pre-incubation of brain tumor or capillary cells with the cRGD peptide, or the combination of anti-αvβ3 and anti-αvβ5 antibodies, prevents cell adhesion to vitronectin. […] Attached cells were combined after trypsinization with floating cells and the number of apoptotic cells was determined by FACS, using anti-annexin V-FITC antibody and propidium iodide (Clontech Apo alert Annexin V-FITC detection apoptosis kit).
# primary HBEC = experiment: Apoptosis on vitronectin (Annexin V-FITC FACS), HBEC; assay type: cell-based, human; settings: 20 μg/ml, 4 hrs
# Procedure: as §8, §9, §10
# U87 glioblastoma cells [10] = experiment: Tumor cell adhesion to ECM proteins (FIG. 7), U87; assay type: cell-based, human; settings: U87 on vitronectin and tenascin, 20 μg/ml, 8-hour incubation
# Procedure: (§11) Non tissue culture dishes were incubated 1 hour at 37° C. with vitronectin, tenascin, fibronectin or collagen I (10 μg/ml), then washed with PBS. After the wash, 5×10^5 cells /well were plated and incubated for 16 hours at 37° C. The cultures were then washed and an adhesion buffer containing 20 μg/ml of pentapeptide or control peptide were added and incubated for an additional 2-24 hours. The cultures were then washed twice with adhesion buffer and stained with Crystal violet and the OD 600 determined. The more adherent cells are present, the higher the OD. Data represent adherent cells after 8-hour incubation. U87=glioblastoma and DAOY=medulloblastoma.
# [11] = test system: DAOY medulloblastoma cells; experiment: Tumor cell adhesion to ECM proteins (FIG. 7), DAOY; assay type: cell-based, human; settings: DAOY on vitronectin and tenascin, 20 μg/ml, 8-hour incubation
# Procedure: as §11
# U87 glioblastoma cells [12] = experiment: Apoptosis of cells grown on ECM (FIG. 8), U87; assay type: cell-based, human; settings: 20 μg/ml, 24 hours
# Procedure: as §11
# (§12) Test conditions were as in FIG. 7, except that detached cells and adherent cells were combined after trypsinisation. The cells were then washed, suspended in 50 μl PBS and centrifuged in glass cover slides (cytospin). After fixation with 4% paraformaldehyde, the cells were stained for apoptosis using the Boehringer Apoptosis Kit. Results are expressed in a percentage of apoptotic cells versus total number of cells. Experiment was done after 24 hours of incubation with the peptides.
# [13] = test system: DAOY medulloblastoma cells; experiment: Apoptosis of cells grown on ECM (FIG. 8), DAOY; assay type: cell-based, human; settings: 20 μg/ml, 24 hours
# Procedure: as §11, §12
# brain capillary cells = experiment: Apoptosis of cells grown on ECM (FIG. 8), brain capillary cells; assay type: cell-based, human; settings: 20 μg/ml, 24 hours
# Procedure: as §11, §12
# [14] = test system: M21L αv neg melanoma cells; experiment: Survival of nude mice with αv-negative melanoma cells implanted into the brain; assay type: in vivo; settings: 10^6 cells into forebrain of nude mice
# Description: (§13) Mice were sacrificed when becoming cachectic and the presence of tumor was verified by autopsy.
# [15] = test system: M21L αv pos melanoma cells; experiment: Survival of nude mice with αv-positive melanoma cells implanted into the brain; assay type: in vivo; settings: 10^6 cells into forebrain of nude mice
# Description: as §13
# DAOY cells [16] = experiment: Heterotopic (subcutaneous) tumor model, DAOY cells in nude mice
# Procedure: (§14) Subcutaneous tumor growth: For subcutaneous tumor growth, the cells (10^6 mouse) were injected s.c. below the right shoulder pad immediately following intracerebral injection.
# (§15) To further investigate this finding, we simultaneously injected the DAOY and U87MG cells intracranially and subcutaneously before initiating treatment with the peptides as outlined under the orthotopic model.
# U87MG cells [17] = experiment: Heterotopic (subcutaneous) tumor model, U87MG cells in nude mice
# Procedure: as §14, §15
# DAOY cells [18] = experiment: Orthotopic brain tumor model, DAOY cells injected intracerebrally in nu/nu mice; settings: for Tumor size (mm) Brain: nu/nu mice, 100 μg/mouse daily i.p. from day 7, 4 weeks total tumor growth
# Procedure: (§16) Tumor cells (10^6/10 μl PBS) were injected intracerebrally at the coordinates mentioned. […] The animals were then sacrificed by CO2 anesthesia, the brains removed and either snap frozen in liquid nitrogen or fixed in buffered formalin, embedded in paraffin and the cut sections stained with Hematoxylin-Eosin.
# DAOY and U87MG cells (10^6 cells/mouse) were stereotactically injected into the right frontal cortex of nu/nu mice in order to establish a system that recapitulates the brain microenvironment. […] For each time, point n=5 or 6.
# (§17) Additional animals were tested for survival. Survival was measured as the time point in which mice required sacrifice, due to a moribund state. […] N for DAOY and U87MG control is 16 mice each and 32 mice for treated DAOY and 24 for treated U87MG.
# U87MG cells [19] = experiment: Orthotopic brain tumor model, U87MG cells injected intracerebrally in nu/nu mice
# Procedure: as §16
# DAOY and U87MG cells (10^6 cells/mouse) were stereotactically injected into the right frontal cortex of nu/nu mice in order to establish a system that recapitulates the brain microenvironment.
# as §17
# Tumors were removed after 2 weeks of treatment, fixed in buffered formalin, embedded in paraffin and 5 μm sections obtained.
# [20] = test system: C6 and 9L rat glioma xenografts; settings: 1 mg/mouse/day; cited from earlier work
# [21] = 100 μg/mouse/day from day 3, listed as active pentapeptide
molecule,measurement,setting,value
"CC(C)[C@H]1C(=O)N[C@@H](CCCN=C(N)N)C(=O)NCC(=O)N[C@@H](CC(=O)O)C(=O)N[C@H](Cc2ccccc2)C(=O)N1C [EMD 121974, cyclo(Arg-Gly-Asp-D-Phe-[N-Me]-Val)]",tumor-associated angiogenesis (stereomicroscope),[1],significant suppression of angiogenesis
same,decrease of tumor weight,"[1]; n=8, listed as active peptide",about 30%
same,decrease of tumor weight,"[1]; n=8, listed as αv-antagonist",30%
same,tumor-associated angiogenesis (stereomicroscope),[2],significant suppression of angiogenesis
same,decrease of tumor weight,"[2]; n=8, listed as active peptide",about 30%
same,decrease of tumor weight,"[2]; n=8, listed as αv-antagonist",30%
same,adhesion to vitronectin,DAOY cells [3],Significant inhibition
same,adhesion to vitronectin,U87MG cells [4],Significant inhibition
same,adhesion to vitronectin,[5],Significant inhibition
same,migration on vitronectin,DAOY cells [6],significantly inhibited
same,migration on vitronectin,U87MG cells [7],significantly inhibited
same,migration on vitronectin,[8],significantly inhibited
same,apoptosis after attachment to vitronectin,DAOY cells [9],significant apoptosis
same,apoptosis after attachment to vitronectin,primary HBEC,significant apoptosis
same,"adhesion to ECM (adherent cells, OD 600)",U87 glioblastoma cells [10],detached from vitronectin and tenascin
same,"adhesion to ECM (adherent cells, OD 600)",[11],detached from vitronectin and tenascin
same,cell survival / apoptotic cells,U87 glioblastoma cells [12]; U87 grown on collagen I or fibronectin,did not alter the survival
same,cell survival / apoptotic cells,U87 glioblastoma cells [12]; U87 grown on vitronectin or tenascin,increased number of dead cells
same,cell survival / apoptotic cells,[13]; DAOY grown on collagen I or fibronectin,did not alter the survival
same,cell survival / apoptotic cells,[13]; DAOY grown on vitronectin or tenascin,increased number of dead cells
same,cell survival / apoptotic cells,brain capillary cells; brain capillary cells grown on collagen I or fibronectin,did not alter the survival
same,cell survival / apoptotic cells,brain capillary cells; brain capillary cells grown on vitronectin or tenascin,increased number of dead cells
same,Survival,[14]; 100 μg/mouse/day from day 3,15.7 ± 3.8 days
same,Survival,[14]; [21],15 days
same,Survival,[15]; 100 μg/mouse/day from day 3,36.5 ± 2.9 days
same,Survival,[15]; [21],36 days
same,average size of subcutaneous tumors,"DAOY cells [16]; DAOY injected into brain and subcutis, treatment from day 7, week 4 (FIG. 5)",18 mm^3
same,time to sacrifice necessitated by progressive growth of subcutaneous tumors,DAOY cells [16]; DAOY injected intracranially and subcutaneously,10 weeks
same,inhibition of subcutaneous tumor growth,"DAOY cells [16]; DAOY s.c. only, 100 μg/mouse daily i.p. from day 7, after 6 weeks",no inhibition of tumor growth
same,Tumor size (mm) Subcutis,"DAOY cells [16]; DAOY s.c., 100 μg/mouse daily i.p.",17 ± 0.84 mm
same,time to sacrifice necessitated by progressive growth of subcutaneous tumors,U87MG cells [17]; U87MG injected intracranially and subcutaneously,10 weeks
same,inhibition of subcutaneous tumor growth,"U87MG cells [17]; U87MG s.c. only, 100 μg/mouse daily i.p. from day 3, after 6 weeks",no inhibition of tumor growth
same,Tumor size (mm) Subcutis,"U87MG cells [17]; U87MG s.c., 100 μg/mouse daily i.p.",19 ± 0.77 mm
same,Mouse weight (gr),DAOY cells [18]; 100 μg/mouse daily i.p.,21 ± 0.89 gr
same,mean time to the onset of neurologic symptoms,DAOY cells [18]; 100 μg/mouse daily i.p.,no evidence of neurological symptoms at any time
same,mouse weight,"DAOY cells [18]; 100 μg/mouse daily i.p., baseline 21 g",21 g
same,"survival (time point at which mice required sacrifice, moribund state)",DAOY cells [18]; i.p. 100 μg/mouse/day from day 7,≥ 24 weeks
same,Tumor size (mm) Brain,DAOY cells [18]; listed as active peptide,absence or microscopic residual disease
same,Tumor size (mm) Brain,DAOY cells [18]; listed as αv-antagonist,no tumor or only scant residual tumor cells
same,size of residual tumor foci,DAOY cells [18]; treated group,smaller than 1 mm^3
same,Mouse weight (gr),"U87MG cells [19]; U87MG, 100 μg/mouse daily i.p.",20 ± 0.71 gr
same,mean time to the onset of neurologic symptoms,"U87MG cells [19]; U87MG, 100 μg/mouse daily i.p.",no evidence of neurological symptoms at any time
same,mouse weight,"U87MG cells [19]; U87MG, 100 μg/mouse daily i.p., baseline 21 g",21 g
same,"survival (time point at which mice required sacrifice, moribund state)","U87MG cells [19]; U87MG, i.p. 100 μg/mouse/day from day 3",≥ 15 weeks
same,Tumor size (mm) Brain,"U87MG cells [19]; U87MG, nu/nu mice, 100 μg/mouse daily i.p. from day 3, 4 weeks total tumor growth, listed as αv-antagonist",no tumor or only scant residual tumor cells
same,size of residual tumor foci,"U87MG cells [19]; U87MG, treated group",smaller than 1 mm^3
same,CD31 positive vessels in tumor sections (immunohistochemistry),"U87MG cells [19]; U87 brain tumors, 100 μg/mouse/day from day 7, 2 weeks of treatment, p<0.005",very few such vessels
same,apoptotic (dead) cells in tumor sections,"U87MG cells [19]; U87 brain tumors, 100 μg/mouse/day from day 7, 2 weeks of treatment, p<0.02",significantly more dead cells
Angiostatin,growth inhibition of intracranial glioma xenografts,[20],considerable growth inhibition
